Assays:
[1] = system: HaCaT cells (human keratinocyte cell line); experiment: Cell proliferation analysis (MTT); assay type: cell-based; conditions: peptide 1.6-1000 μM, 72 hours, FIG. 1
Procedure: (§1) NIH3T3 cells (mouse fibroblast) and HaCaT cells (human keratinocyte cell line) were seeded at a density of 1×10^4 cells/well in a 96-well plate and cultured for 24 hours. The cells were washed once with serum-free DMEM medium. Different amounts of peptides were added to 200 μL of serum-free DMEM medium to prepare peptide medium solutions having concentrations of 1.6 μM, 8 μM, 40 μM, 200 μM, and 1000 μM, and the prepared peptide medium solutions were treated to the washed cells. Then, the treated cells were cultured in a CO2 incubator at 37° C. for 72 hours, washed twice with PBS, and MTT (Sigma, Cat. No.: M2003, USA) solution was dispensed into each well to a final concentration of 0.5 mg/mL. Then, after blocking light, the cells were cultured in a CO2 incubator at 37° C. for 4 hours. The absorbance was measured at 540 nm using a microplate reader (SpectraMax iD3, Molecular devices, USA).

[2] = system: NIH3T3 cells (mouse fibroblast); experiment: Cell proliferation analysis (MTT); assay type: cell-based; conditions: peptide 1.6-1000 μM, 72 hours, FIG. 1
Procedure: as §1

[3] = system: HaCaT cells (human keratinocyte cell line); experiment: Promotion of collagen and hyaluronic acid (HA) expression, ELISA of culture supernatant; assay type: cell-based; conditions: 50 μM to 200 μM, 72 hours, FIG. 2
Procedure: (§2) NIH3T3 cells (mouse fibroblast) and HaCaT cells (human keratinocyte cell line) were seeded at a density of 1×10^4 cells/well in a 24-well plate and cultured for 24 hours. The cells were washed once with serum-free DMEM medium. Different amounts of peptides were added to 500 μL of serum-free DMEM medium to prepare peptide medium solutions having concentrations of 50 μM, 100 μM, and 200 μM, and the washed cells were treated with the prepared peptide medium solutions. As a positive control, 100 nM […] was used in NIH3T3 cells and 100 nM IGF-1 was used in HaCaT cells. The treated cells were then cultured in a CO2 incubator at 37° C. for 72 hours. The cell culture liquid was collected, centrifuged, and the supernatant was transferred to a tube. The obtained supernatant was subjected to ELISA analysis using the Collagen ELISA kit (Abcam, Cat No.: ab210579, UK) and HA ELISA kit (ECHELON Biosciences, Cat No.: K-1200, USA), respectively.

[4] = system: NIH3T3 cells (mouse fibroblast); experiment: as above; assay type: cell-based; conditions: 50 μM to 200 μM, 72 hours, FIG. 2
Procedure: as §2

[5] = system: hyaluronidase from bovine testes; experiment: Delay of hyaluronic acid degradation by hyaluronidase in hyaluronic acid solution (viscosity, rheometer); assay type: biochemical; conditions: 1.5 wt % hyaluronic acid in PBS
Procedure: Hyaluronic acid was dissolved in PBS to a concentration of 1.5 wt % and hydrated, and 10 g of this solution was dispensed into each conical tube. Peptide solutions were added to the dispensed hyaluronic acid solutions so that the final peptide concentrations were 0 ppm (no addition), 100 ppm, 1000 ppm, and 5000 ppm, respectively. 2 mL of hyaluronic acid degrading enzyme (hyaluronidase from bovine testes, Hadase, Sigma) was added to each conical tube. Viscosity was measured using a rheometer (single shear stress) by sampling at 0 and 30 minutes to compare the viscosity values according to the peptide concentration. As above, the 1.5 wt % hyaluronic acid solution containing the peptides at each concentration was treated with hyaluronidase, and the enzymatic reaction was maintained for 30 minutes to decompose hyaluronic acid. After the degradation reaction, the viscosity of the hyaluronic acid solution was measured to confirm the degradation delay efficacy.

hyaluronidase (HAdase) = experiment: Delay of hyaluronic acid degradation by hyaluronidase in BDDE-cross-linked hyaluronic acid filler (Congo Red diffusion, absorbance 500 nm); assay type: biochemical; conditions: 24 hours after treatment with hyaluronidase, 37° C., FIG. 4
Procedure: A 1,4-Butanediol diglycidyl ether (BDDE)-cross-linked hyaluronic acid filler with or without the peptide of Preparation Example 1 was prepared, and Congo Red and hyaluronidase (HAdase) were prepared as absorbing dyes. 20 μL of 1 mM Congo Red was added to a 1.5 mL eppendorf tube, and 100 μL each of the peptide-free filler (control filler) and the peptide-containing filler were added on the absorbing dye. Each was treated with 350 μL of 0.15 mg/mL (108 units) of hyaluronidase. Each tube was placed in an incubator at 37° C., and 100 μL of the sample supernatant was collected at time points of 6 and 24 hours and transferred to a 96-well. The absorbance was measured at 500 nm using a microplate reader (SpectraMax iD3, Molecular Devices, USA). As above, BDDE-cross-linked hyaluronic acid filler samples with or without the peptide were prepared, and the degree of degradation of the hyaluronic acid filler by hyaluronidase was compared depending on the presence or absence of the peptide. The degree of degradation of the hyaluronic acid filler was measured by the change in absorbance according to the diffusion of the dye. That is, the principle, in which the flowability of the sample increases when hyaluronic acid is degraded by the degradation enzyme, thereby increasing the diffusion of the dye, was utilized.

[6] = Delay of hyaluronic acid degradation by reactive oxygen species in hyaluronic acid solution (viscosity, rheometer); conditions: 1.5 wt % hyaluronic acid in PBS, peptide 100, 1000, 5000 ppm, 500 mM H2O2, 60 and 180 minutes, FIG. 5
Procedure: Hyaluronic acid was dissolved in PBS to a concentration of 1.5 wt % and hydrated, and 10 g of this solution was dispensed into each conical tube. Peptide solutions were added to the dispensed hyaluronic acid solutions so that the final peptide concentrations were 0 ppm (no addition), 100 ppm, 1000 ppm, and 5000 ppm, respectively. 2 mL of 500 mM hydrogen peroxide (H2O2) was added to each. Viscosity was measured using a rheometer (single shear stress) by sampling at 0, 30, 60, and 180 minutes to compare the viscosity values according to the peptide concentration. As above, 1.5 wt % hyaluronic acid solutions containing peptides at each concentration were treated with hydrogen peroxide to maintain the degradation reaction by reactive oxygen species for 60 and 180 minutes, thereby degrading hyaluronic acid. After the degradation reaction, the viscosity of each hyaluronic acid solution was measured to confirm the degradation delaying efficacy.

[7] = Delay of hyaluronic acid degradation by reactive oxygen species in BDDE-cross-linked hyaluronic acid filler (Congo Red diffusion, absorbance 500 nm); conditions: 37° C., FIG. 6
Procedure: A 1,4-Butanediol diglycidyl ether (BDDE)-cross-linked hyaluronic acid filler with or without the peptide of Preparation Example 1 was prepared, and Congo Red and hyaluronidase (HAdase) as absorbing dyes were prepared. 20 μL of 1 mM Congo Red was added to each 1.5 mL eppendorf tube, and 100 μL each of the peptide-free filler (control filler) and the peptide-containing filler were added on the absorbing dye. Each was treated with 350 μL of 500 mM hydrogen peroxide (H2O2). Each tube was placed in an incubator at 37° C., and 100 μL of the sample supernatant was collected at time points of 1 hour, 3 hours, 6 hours, 24 hours, 48 hours, and 72 hours and transferred to 96-wells. The absorbance was measured at 500 nm using a microplate reader (SpectraMax iD3, Molecular devices, USA). As above, BDDE-cross-linked hyaluronic acid filler samples with or without the peptide were prepared, and the degree of degradation of hyaluronic acid filler by reactive oxygen species was compared depending on the presence or absence of peptide. The degree of degradation of hyaluronic acid filler was measured by the change in absorbance due to the diffusion of dye. That is, the principle that the flowability of the sample increases when hyaluronic acid is degraded by reactive oxygen species and thus the diffusion of the dye increases was utilized.

[8] = pH stability of peptide (HPLC area); assay type: physicochemical; conditions: 1000 ppm solution titrated to pH 4, pH 7, pH 10, HPLC area relative to pH 7, FIG. 7b
Procedure: The evaluation of pH stability was performed as follows. A diluted solution of the peptide of Preparation Example 1 at a concentration of 1000 ppm was prepared, and the initial pH value of the solution was measured (pH=3.21). 0.5 M NaOH was added so as to titrate the pH of the solution to pH 4, pH 7, and pH 10, respectively. Each sample was filtered through a 0.22 μm filter. The area values were compared based on pH 7 measured by HPLC.

[9] = Thermal stability of peptide (HPLC area); assay type: physicochemical; conditions: 1000 ppm solution, 25° C. and 50° C., 72 hours, FIG. 7a
Procedure: The evaluation of thermal stability was performed as follows. A diluted solution of the peptide of Preparation Example 1 at a concentration of 1000 ppm was prepared, dispensed into 50 mL conical tubes, and placed in an incubator at 25° C. and 50° C. After 72 hours, 1 mL of each sample was filtered through a 0.22 μm filter. The area values were compared at 25° C. based on pH 7 measured by HPLC.

## KIWNLEPSRNGT (H2N-Lys-Ile-Trp-Asn-Leu-Glu-Pro-Ser-Arg-Asn-Gly-Thr-COOH) [peptide having SEQ ID NO: 1]
[1]
  effect of promoting cell proliferation: significant effect of promoting cell proliferation
[2]
  effect of promoting cell proliferation: significant effect of promoting cell proliferation
[3]; Collagen ELISA
  collagen expression: significant increase in collagen expression
[3]; HA ELISA
  hyaluronic acid (HA) expression: increase in hyaluronic acid (HA) expression
[4]; Collagen ELISA
  collagen expression: significant increase in collagen expression
[4]; HA ELISA
  hyaluronic acid (HA) expression: increase in hyaluronic acid (HA) expression
[5]; hyaluronidase 30 minutes
  difference in the degradation delay efficacy of 1000 ppm and 5000 ppm: not significant
[5]; peptide 100, 1000, 5000 ppm, 30 minutes, FIG. 3
  degradation delay efficacy (viscosity of hyaluronic acid solution after hyaluronidase): degradation of hyaluronic acid was delayed as the concentration of the peptide increased
Hyaluronidase (HAdase)
  improvement of delay of degradation versus peptide-free filler: ≥ 15%
[6]
  degradation delaying efficacy (viscosity of hyaluronic acid solution after hydrogen peroxide): degradation of hyaluronic acid was delayed as the concentration of peptide increased
[7]; 24 hours after treatment with 500 mM hydrogen peroxide
  improvement of degradation delay versus peptide-free filler: ≥ 50%
[7]; treated 48 hours with 500 mM hydrogen peroxide, filler without peptides mostly degraded
  effect of delaying degradation: 85%
[8]
  pH stability: stable even at a high temperature of 50 °C and in the range of pH 4 to pH 10
[9]
  thermal stability: stable even at a high temperature of 50 °C

From US20260283925A1, “NOVEL PEPTIDE HAVING ACTIVITY OF RETARDING DEGRADATION OF HYALURONIC ACID AND USES THEREOF” (CAREGEN CO., LTD., priority 2023, published 2026)
